One data set has as its system rat intestinal S9. The data set is described as follows: TDF stability in rat intestinal S9 fraction and effect of inhibitors. Particulars: for inhibition of TDF hydrolysis: rat S9.
Data set [1] relates to porcine pancrelipase (PL). The data set is described as follows: Hydrolysis of TDF by PL and effect of enzyme inhibitors. The class given is biochemical. Particulars: PP or MP together or alone, FaSSIF with PL.
Method: TDF solutions were prepared at 10 μM and incubated in triplicate at 37°C in FaSSIF containing PL at 480 U/mL with and without inhibitors. Inhibitors were added at 10% vol/vol for the oils (sesame, olive, safflower, soybean, and coconut); at 10 mM for PP, MP, and EM1; and at 0.05 mM/0.002 mM for EDTA/PMSF. Controls consisted of TDF in transport media or FaSSIF with and without PL. Samples were incubated at 37°C and quenched with acetonitrile at 10, 15, 20, and 30 min. For each time point, the % TDF or % TFV-ME remaining was determined by LC-MS/MS as described below.
The subject of the next data set is human intestinal S9. The data set can be described thus: TDF stability in human intestinal S9 fraction and effect of inhibitors. To be noted: for inhibition of TDF hydrolysis: human S9.
Data set [2] deals with rat intestinal homogenates. More on the design: method as in PMID 12124311. To be noted: cited from earlier work.
The subject of data set [3] is porcine pancrelipase (PL). The data set is described as follows: Stability in SGF and FaSSIF with and without PL. It is filed as in vitro ADME. Particulars: 37°C. As for the experimental part: Samples were incubated at 37°C and quenched with acetonitrile at 0, 15, 30, 60, 90, and 120 min. For each time point, the % TDF or % TFV-ME remaining was determined by LC-MS/MS as described below.

The next data set relates to MDCK-MDR1 cells (P-gp). The data set is described as follows: MDCK-MDR1 efflux studies. It is filed as in vitro ADME, canine. Particulars: for Papp, A to B / Papp, B to A: (SEM). As for the experimental part: MDCK-MDR1 cells (Netherlands Cancer Institute) were seeded at a density of 3 × 10^5 cells per well onto microporous polycarbonate membranes in 12-well Costar Transwell plates (Corning, Inc.). The cells were incubated for 3 days during which time they formed confluent monolayers. Monolayer integrity was checked using a Millicell-ERS instrument (Millipore) to determine the transepithelial electrical resistance (TEER) across the monolayer. […] […] Competency of the P-gp efflux transporter was confirmed by assay of propranolol (nonsubstrate) and amprenavir (substrate). Cell monolayers were incubated in triplicate with shaking (160 rpm) at 37°C for 2 h. Samples were removed from the apical and basolateral compartments after incubation and assayed for test compound concentrations by LC-MS/MS.
Conditions were similar to those used for Caco-2 analyses. Differences included the use of a Phenomenex Synergi Hydro-RP column (4 μm, 2.1 × 50 mm) at 60°C, mobile phases of aqueous 0.2% formic acid (A) and neat methanol (B), and a rapid 0.9 min gradient from 0% to 95% B.

A short description of the next data set: in vivo. More on the design: species or system Sprague-Dawley rats. To be noted: rat, given IV; for AUC: male, Sprague-Dawley, plasma, iv, AUC0-8h.
The subject of the next data set is lymphocytes. Also on record: method as in PMID 9517941. To be noted: cited from earlier work.
The next data set concerns Caco-2 cell monolayers. The class given is in vitro ADME. To be noted: 1 mM BNPP, 1 mM PP, 0.05% wt/vol EM1, 0.5 mg/mL TPGS, 10 μM CsA, 2 μM GF918.
Setting [4] is: rat S9, 10 μM TDF, 37°C, 10 μM BNPP, 100 μM PMSF, 0.05% wt/vol EM1, 1 mM PP, 1 mM MP, 1 mM EP.
The mark [5] stands for this setting: human S9, 10 μM TDF, 37°C, 10 μM BNPP, 100 μM PMSF, 0.05% wt/vol EM1, 1 mM PP, 1 mM MP, 1 mM EP.

What is called AUC is the area under the concentration-time curve, a measure of exposure.

SMILES strings stand for the structures. Where two headings read alike, the source gives them in different places.

Method for Caco-2 cell monolayers: Caco-2 monolayer experiments were performed as previously described[30] with a few modifications. […] Following incubation, the media was replaced to remove dead cells and prevent the formation of multiple layers of cells settling on the filter. Media was then changed every 2-3 days and plates were used in experiments after a total of 21 days from initial seeding. Monolayer integrity was checked before and after each experiment using a Millicell-ERS instrument to determine the TEER across the monolayer and to ensure that there was no substantial change in monolayer integrity throughout the duration of an experiment. On the day of the experiment, the TEER was assessed and the media in each plate was replaced with warm HBSS (pH 7) and allowed to equilibrate (37°C, 30 min). Apical (for apical-to-basolateral [A-to-B] transport) chambers were replaced with HBSS containing 10 μM (final concentration, n = 3 reps) aqueous solution of drug and inhibitors. Samples were taken from both apical and basolateral compartments at 120 min and diluted into an appropriate solvent to allow drug quantitation using LC-MS/MS.
Samples from permeability assays were also diluted into Mobile Phase A prior to analysis.
Mobile Phase A was 3/1/96 acetonitrile/acetic acid/water and Mobile Phase B was 96/1/3 acetonitrile/acetic acid/water. Rather than isocratic elution, a gradient program was used. The gradient program held at 0% B for 1 min, ramped to 98% B from 1 to 2 min, held at 98% B from 2 to 3 min, and then returned to initial conditions. Q1/Q3 ions for TFV-ME and TDF were 404.0/270.0 and 520.1/270.0, respectively.
Method for human intestinal S9: (§1) TDF solutions were prepared at 10 μM in rat or human intestinal S9 fraction (0.5 mg protein/mL). Inhibitors were added to the solutions. […] Control samples included buffer, human S9, or rat S9 solutions with only TDF. Samples were incubated at 37°C for 0, 5, 10, 15, 20, and 30 min and then analyzed by LC-MS/MS for TDF, TFV-ME, TFV, and PP (to quantify stability).
(§2) Samples from S9 incubations were analyzed using the LC-MS/MS conditions described earlier for Caco-2 samples.
Method for rat intestinal S9: as §1, §2

For `CCCOC(=O)c1ccc(O)cc1` [PP, propylparaben], the “TDF Rate Constant with inhibitor” value was -0.196 min⁻¹ in the data set with rat intestinal S9 (setting [4]) and -0.035 min⁻¹ in the data set with human intestinal S9 (setting [5]). Further, the “protection of TDF against PL hydrolysis” value in data set [1] was “did not protect TDF”. Moreover, in [2], the “inhibition of TDF metabolism” value was 94.5%.
For the compound `CC(C)OC(=O)OCOP(=O)(O)CO[C@H](C)Cn1cnc2c(N)ncnc21` [TFV-ME, tenofovir monophosphonate ester], the “half-life in FaSSIF with PL” value in [3] (10 μM, PL 480 U/mL) was found to be 0.633 ± 0.0333 h. Also, the “stability in SGF and FaSSIF” value in data set [3] (without PL, up to 120 min, TDF 10 μM) is “stable”. For the same compound, the Efflux ratio is given as 2.1 with MDCK-MDR1 cells (P-gp) (MDCK-MDR1, 0 μM GF918) and 0.9 in the data set on MDCK-MDR1 cells (P-gp) (MDCK-MDR1, 2 μM GF918). The “Papp, A to B” value is 4.1 (0.20) nm/s in the data set on MDCK-MDR1 cells (P-gp) (MDCK-MDR1, 0 μM GF918, 120 min) and 5.3 (0.61) nm/s in the data set with MDCK-MDR1 cells (P-gp) (MDCK-MDR1, 2 μM GF918, 120 min). Also, the “Papp, B to A” value in the data set with MDCK-MDR1 cells (P-gp) (MDCK-MDR1, 0 μM GF918, 120 min) was 8.8 (0.60) nm/s; in the data set on MDCK-MDR1 cells (P-gp) (MDCK-MDR1, 2 μM GF918, 120 min) it was 5.0 (0.58) nm/s.
On to `CCOC(=O)c1ccc(O)cc1` [EP, ethylparaben], for which the entries for the “TDF Rate Constant with inhibitor” value in the data set with rat intestinal S9 (setting [4]) and in the data set with human intestinal S9 (setting [5]) were -1.023 min⁻¹ and -0.210 min⁻¹, respectively. In addition, the “inhibition of TDF hydrolysis” value is given as “did not show any substantial inhibition” in the data set on rat intestinal S9 (100 μM PMSF, 1 mM EP, 1 mM MP) and “did not show any substantial inhibition” in the data set with human intestinal S9 (100 μM PMSF, 1 mM EP, 1 mM MP).
Regarding `C[C@H](Cn1cnc2c(N)ncnc21)OCP(=O)(O)O` [TFV, tenofovir], the AUC in the data set “in vivo” (read-out: TFV AUC, Mean) came out at 3210 ng·h/mL; in “in vivo” (read-out: TFV AUC, Median), 3200 ng·h/mL. The “TFV AUC, Median Fold Increase” value in the data set “in vivo” (versus oral TDF Control) came out at 2.85 fold. Further, the intracellular half-life was 12 to 15 h in the data set with lymphocytes (activated lymphocytes) and 33 to 50 h with lymphocytes (resting lymphocytes).
For the compound `COC(=O)c1ccc(O)cc1` [MP, methylparaben], the results for the “TDF Rate Constant with inhibitor” value in the data set with rat intestinal S9 (setting [4]) and in the data set on human intestinal S9 (setting [5]) were -1.297 min⁻¹ and -1.065 min⁻¹, respectively. Moreover, the “inhibition of TDF hydrolysis” value with rat intestinal S9 (100 μM PMSF, 1 mM EP, 1 mM MP) is reported as “did not show any substantial inhibition”; in the data set on human intestinal S9 (100 μM PMSF, 1 mM EP, 1 mM MP), “did not show any substantial inhibition”. Further, the “protection of TDF against PL hydrolysis” value in [1] was “did not protect TDF”.
With `O=S(=O)(F)Cc1ccccc1` [PMSF, phenylmethylsulfonyl fluoride], the “TDF Rate Constant with inhibitor” value with rat intestinal S9 (setting [4]) was -1.064 min⁻¹; in the data set on human intestinal S9 (setting [5]) it was -0.185 min⁻¹. Moreover, the “inhibition of TDF hydrolysis” value in the data set on rat intestinal S9 (100 μM PMSF, 1 mM EP, 1 mM MP) is listed as “did not show any substantial inhibition”; with human intestinal S9 (100 μM PMSF, 1 mM EP, 1 mM MP), “did not show any substantial inhibition”.
With `O=[N+]([O-])c1ccc(OP(=O)(O)Oc2ccc([N+](=O)[O-])cc2)cc1` [BNPP, Bis-para-nitrophenylphosphate], in the data set on rat intestinal S9, the “TDF Rate Constant with inhibitor” value was -0.016 min⁻¹. Moreover, the “TDF Rate Constant with inhibitor” value in the data set with human intestinal S9 is -0.009 min⁻¹. Also, in the data set on Caco-2 cell monolayers (Caco-2, versus no inhibitor), the “Fold Increase, TDF (A to B transport)” value worked out at 6.2 fold and the “Fold Increase, TFV Family (A to B transport)” value is on record as 3.1 fold. Besides, in the data set with Caco-2 cell monolayers (Caco-2 A to B, 10 μM, 120 min), the “% Measured Basolateral, TDF (median), with inhibitor(s)” value is reported as 4.88%; the “% Measured Basolateral, TNF (median), with inhibitor(s)” value is reported as 0.00%; the “% Measured Basolateral, TNF-ME (median), with inhibitor(s)” value is recorded as 0.55%.

Values taken from publication PMC5320394, “Development of a Novel Formulation That Improves Preclinical Bioavailability of Tenofovir Disoproxil Fumarate” (Journal of Pharmaceutical Sciences, 2017).
